For this test, the target named is Genome polyprotein (Hepatitis C virus genotype 3a (isolate NZL1) (HCV), UniProt Q81258). The experiment in a line: Inhibition Assay: HCV polymerase inhibition assay: HCV polymerase reactions were carried out using a modified mothod of Howe et al., Antimicrobial Agents and Chemotherapy 2004 48(12): 4813-4821.
Sequence of Genome polyprotein (Q81258 2431-3021 limits assumed): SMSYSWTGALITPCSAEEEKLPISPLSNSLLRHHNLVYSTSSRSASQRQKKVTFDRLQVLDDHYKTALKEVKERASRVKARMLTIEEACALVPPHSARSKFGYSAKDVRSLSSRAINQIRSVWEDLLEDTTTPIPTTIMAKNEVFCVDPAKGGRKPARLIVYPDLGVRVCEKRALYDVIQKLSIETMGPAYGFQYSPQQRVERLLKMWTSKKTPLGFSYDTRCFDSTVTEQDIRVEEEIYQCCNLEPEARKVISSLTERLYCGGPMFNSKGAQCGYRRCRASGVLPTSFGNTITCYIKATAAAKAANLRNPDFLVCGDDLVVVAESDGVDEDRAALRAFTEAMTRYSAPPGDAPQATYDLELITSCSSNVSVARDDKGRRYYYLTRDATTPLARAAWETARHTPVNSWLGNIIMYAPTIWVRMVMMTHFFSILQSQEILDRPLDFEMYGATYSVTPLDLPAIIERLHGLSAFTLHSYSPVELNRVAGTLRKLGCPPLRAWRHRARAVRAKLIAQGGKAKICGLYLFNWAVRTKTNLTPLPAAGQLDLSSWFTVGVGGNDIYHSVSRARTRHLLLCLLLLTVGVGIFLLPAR

Compound `CNC(=O)c1c2cc(C3CC3)c(N(CCCNC(=O)c3ncoc3C)S(C)(=O)=O)cc2nn1-c1ccc(Br)cc1` displayed a half-maximal inhibitory concentration (IC50) of 30 nM.

The record behind these values is ChEMBL document CHEMBL3638530, “Viral polymerase inhibitors” (2013).
